Measurements from ChEMBL document CHEMBL5303765, “Data for DCP probe BAY-7081” (2023).

Columns and labels:
[1] = molecular target: Histamine H2 receptor (Homo sapiens) (UniProt P25021); assay: Histamine H2 Eurofins Panlabs panel; conditions: Compound concentration 10.0 uM
[2] = molecular target: Prostaglandin E2 receptor EP1 subtype (Homo sapiens) (UniProt P34995); assay: Prostanoid EP1 Eurofins Panlabs panel; conditions: Compound concentration 10.0 uM
[3] = molecular target: Phosphodiesterase 3 (Homo sapiens) (UniProt Q14432+Q13370); assay: Phosphodiesterase PDE3 Eurofins Panlabs panel; assay type: protein assay; conditions: Compound concentration 10.0 uM
[4] = molecular target: T1, Muscarinic acetylcholine receptor M2 (Homo sapiens) (UniProt P08172); assay: Muscarinic M2 Eurofins Panlabs panel; conditions: Compound concentration 10.0 uM
T1 sequence (whole entry): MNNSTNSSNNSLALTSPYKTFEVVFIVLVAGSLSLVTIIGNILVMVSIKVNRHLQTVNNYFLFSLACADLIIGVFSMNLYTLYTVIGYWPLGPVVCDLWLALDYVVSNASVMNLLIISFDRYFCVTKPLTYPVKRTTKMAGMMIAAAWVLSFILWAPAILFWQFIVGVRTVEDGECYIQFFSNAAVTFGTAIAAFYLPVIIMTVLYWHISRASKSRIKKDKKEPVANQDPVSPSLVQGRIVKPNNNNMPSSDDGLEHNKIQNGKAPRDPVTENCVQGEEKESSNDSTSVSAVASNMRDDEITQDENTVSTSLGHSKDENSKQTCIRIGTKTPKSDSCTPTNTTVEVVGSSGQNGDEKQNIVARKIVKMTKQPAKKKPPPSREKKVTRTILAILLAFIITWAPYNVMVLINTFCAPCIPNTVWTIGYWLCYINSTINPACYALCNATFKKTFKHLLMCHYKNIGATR

Mu-type opioid receptor = Mu-type opioid receptor (Homo sapiens, UniProt P35372); assay: Opiate ??(OP3, MOP) Eurofins Panlabs panel; conditions: Compound concentration 10.0 uM
[5] = molecular target: cGMP-inhibited 3',5'-cyclic phosphodiesterase 3B (Homo sapiens, UniProt Q13370); assay: Panlabs assay PDE3B; set-up: compound concentration 10 uM; conditions: at 10 µM
[6] = molecular target: 3',5'-cyclic-AMP phosphodiesterase 4A (Homo sapiens) (UniProt P27815); assay: Panlabs assay PDE4A1A; set-up: compound concentration 10 uM; conditions: at 10 µM
[7] = molecular target: cAMP and cAMP-inhibited cGMP 3',5'-cyclic phosphodiesterase 10A (Homo sapiens, UniProt Q9Y233); assay: Panlabs assay PDE10A2; set-up: compound concentration 10 uM; conditions: at 10 µM
Chain of cAMP and cAMP-inhibited cGMP 3',5'-cyclic phosphodiesterase 10A (Q9Y233 whole entry): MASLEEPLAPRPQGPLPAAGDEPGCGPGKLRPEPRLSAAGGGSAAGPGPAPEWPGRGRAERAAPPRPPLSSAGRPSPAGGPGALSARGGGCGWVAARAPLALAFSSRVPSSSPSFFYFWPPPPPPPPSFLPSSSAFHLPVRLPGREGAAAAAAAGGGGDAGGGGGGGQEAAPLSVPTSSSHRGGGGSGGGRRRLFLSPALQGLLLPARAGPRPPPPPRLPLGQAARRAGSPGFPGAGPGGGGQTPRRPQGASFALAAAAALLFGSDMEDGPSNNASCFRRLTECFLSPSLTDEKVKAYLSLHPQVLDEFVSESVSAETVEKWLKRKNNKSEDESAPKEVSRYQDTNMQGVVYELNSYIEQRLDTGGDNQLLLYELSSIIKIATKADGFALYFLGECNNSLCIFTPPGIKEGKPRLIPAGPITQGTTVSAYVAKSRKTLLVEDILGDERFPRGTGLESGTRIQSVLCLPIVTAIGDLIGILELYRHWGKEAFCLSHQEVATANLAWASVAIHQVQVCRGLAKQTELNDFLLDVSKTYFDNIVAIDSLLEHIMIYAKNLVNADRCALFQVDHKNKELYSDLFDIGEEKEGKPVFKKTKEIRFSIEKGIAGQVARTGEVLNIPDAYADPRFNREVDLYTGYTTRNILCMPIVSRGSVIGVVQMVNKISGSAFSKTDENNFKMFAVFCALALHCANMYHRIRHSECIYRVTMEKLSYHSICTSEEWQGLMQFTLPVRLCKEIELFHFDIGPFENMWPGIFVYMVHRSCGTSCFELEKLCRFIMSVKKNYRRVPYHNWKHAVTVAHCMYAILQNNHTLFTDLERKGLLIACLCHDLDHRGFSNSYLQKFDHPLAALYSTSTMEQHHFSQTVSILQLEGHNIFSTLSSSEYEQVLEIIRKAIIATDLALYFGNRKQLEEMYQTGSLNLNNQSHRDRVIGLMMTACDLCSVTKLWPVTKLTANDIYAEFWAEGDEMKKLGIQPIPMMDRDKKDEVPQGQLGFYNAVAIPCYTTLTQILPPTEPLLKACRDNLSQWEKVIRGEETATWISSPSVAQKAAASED

Chain of cGMP-inhibited 3',5'-cyclic phosphodiesterase 3B (Q13370 whole entry, looked up): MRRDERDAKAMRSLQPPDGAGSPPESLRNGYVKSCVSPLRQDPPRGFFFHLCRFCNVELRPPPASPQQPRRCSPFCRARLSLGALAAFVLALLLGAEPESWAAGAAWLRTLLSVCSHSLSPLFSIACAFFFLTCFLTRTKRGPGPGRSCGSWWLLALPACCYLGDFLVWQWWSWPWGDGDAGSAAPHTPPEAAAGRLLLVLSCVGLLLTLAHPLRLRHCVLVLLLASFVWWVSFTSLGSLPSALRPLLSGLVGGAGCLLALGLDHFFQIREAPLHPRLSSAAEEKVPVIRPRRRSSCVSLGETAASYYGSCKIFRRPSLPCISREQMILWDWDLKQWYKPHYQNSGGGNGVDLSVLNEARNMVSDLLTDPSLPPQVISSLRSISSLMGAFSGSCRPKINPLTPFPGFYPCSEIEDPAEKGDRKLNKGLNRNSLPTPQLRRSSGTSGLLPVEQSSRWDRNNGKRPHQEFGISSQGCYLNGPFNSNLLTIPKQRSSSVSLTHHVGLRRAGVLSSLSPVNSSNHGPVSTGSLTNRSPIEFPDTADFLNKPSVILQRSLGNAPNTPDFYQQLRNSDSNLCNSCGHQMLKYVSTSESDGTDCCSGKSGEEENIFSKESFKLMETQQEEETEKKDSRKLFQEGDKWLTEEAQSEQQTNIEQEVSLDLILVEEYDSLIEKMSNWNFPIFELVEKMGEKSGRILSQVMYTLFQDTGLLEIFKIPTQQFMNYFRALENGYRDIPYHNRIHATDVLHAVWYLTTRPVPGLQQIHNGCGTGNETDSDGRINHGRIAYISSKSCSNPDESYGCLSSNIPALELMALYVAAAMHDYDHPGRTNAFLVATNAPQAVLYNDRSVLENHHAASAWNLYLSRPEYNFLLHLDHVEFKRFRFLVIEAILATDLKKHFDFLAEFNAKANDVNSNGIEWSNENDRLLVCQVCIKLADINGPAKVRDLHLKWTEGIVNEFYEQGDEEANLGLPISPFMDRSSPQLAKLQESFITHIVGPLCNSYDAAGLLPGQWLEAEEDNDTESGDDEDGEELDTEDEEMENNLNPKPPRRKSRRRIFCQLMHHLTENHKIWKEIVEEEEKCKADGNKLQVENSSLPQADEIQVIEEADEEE
Chain of Histamine H2 receptor (Homo sapiens) (P25021 whole entry): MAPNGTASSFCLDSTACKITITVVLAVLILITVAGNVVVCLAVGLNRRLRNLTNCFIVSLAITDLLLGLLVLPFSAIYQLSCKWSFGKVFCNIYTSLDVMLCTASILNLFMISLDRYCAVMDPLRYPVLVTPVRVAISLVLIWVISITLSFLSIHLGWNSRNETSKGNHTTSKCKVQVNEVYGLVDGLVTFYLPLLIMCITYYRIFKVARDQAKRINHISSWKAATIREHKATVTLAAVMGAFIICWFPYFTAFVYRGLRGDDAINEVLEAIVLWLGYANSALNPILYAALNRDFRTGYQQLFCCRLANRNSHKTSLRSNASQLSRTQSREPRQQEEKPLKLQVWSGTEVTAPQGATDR
Chain of Prostaglandin E2 receptor EP1 subtype (Homo sapiens) (P34995 whole entry): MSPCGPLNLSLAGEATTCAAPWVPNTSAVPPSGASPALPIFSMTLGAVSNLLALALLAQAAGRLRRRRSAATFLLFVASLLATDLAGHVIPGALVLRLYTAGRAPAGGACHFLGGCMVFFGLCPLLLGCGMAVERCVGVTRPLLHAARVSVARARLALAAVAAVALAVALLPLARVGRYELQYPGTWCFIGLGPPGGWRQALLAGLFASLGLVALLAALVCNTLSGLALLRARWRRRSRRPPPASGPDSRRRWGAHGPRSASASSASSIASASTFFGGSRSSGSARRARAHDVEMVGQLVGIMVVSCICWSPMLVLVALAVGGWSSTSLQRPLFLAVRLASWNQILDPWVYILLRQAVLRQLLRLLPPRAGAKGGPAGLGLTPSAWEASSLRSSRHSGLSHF
Chain of 3',5'-cyclic-AMP phosphodiesterase 4A (Homo sapiens) (P27815 whole entry): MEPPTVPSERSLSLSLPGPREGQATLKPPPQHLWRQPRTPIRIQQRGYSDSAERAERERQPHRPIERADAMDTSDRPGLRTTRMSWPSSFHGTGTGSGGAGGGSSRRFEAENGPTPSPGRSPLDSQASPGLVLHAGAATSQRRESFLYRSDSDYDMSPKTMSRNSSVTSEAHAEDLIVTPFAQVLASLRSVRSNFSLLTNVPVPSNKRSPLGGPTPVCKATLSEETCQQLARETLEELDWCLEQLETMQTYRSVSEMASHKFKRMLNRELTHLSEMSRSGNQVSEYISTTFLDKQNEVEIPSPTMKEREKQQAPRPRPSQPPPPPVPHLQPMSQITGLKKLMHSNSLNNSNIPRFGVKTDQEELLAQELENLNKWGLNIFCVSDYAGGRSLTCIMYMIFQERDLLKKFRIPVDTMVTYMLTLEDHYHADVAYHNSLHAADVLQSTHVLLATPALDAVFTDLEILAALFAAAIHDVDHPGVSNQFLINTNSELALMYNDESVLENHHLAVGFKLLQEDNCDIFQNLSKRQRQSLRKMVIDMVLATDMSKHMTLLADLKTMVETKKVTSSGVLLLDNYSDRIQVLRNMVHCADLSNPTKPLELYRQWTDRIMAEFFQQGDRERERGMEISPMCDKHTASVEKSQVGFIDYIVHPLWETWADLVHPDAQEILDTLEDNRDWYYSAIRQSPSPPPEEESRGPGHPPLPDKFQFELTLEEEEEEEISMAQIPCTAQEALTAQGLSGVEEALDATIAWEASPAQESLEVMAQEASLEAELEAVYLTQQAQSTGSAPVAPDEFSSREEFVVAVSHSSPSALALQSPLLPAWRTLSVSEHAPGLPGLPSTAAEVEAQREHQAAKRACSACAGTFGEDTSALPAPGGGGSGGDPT
Chain of Mu-type opioid receptor (P35372 whole entry): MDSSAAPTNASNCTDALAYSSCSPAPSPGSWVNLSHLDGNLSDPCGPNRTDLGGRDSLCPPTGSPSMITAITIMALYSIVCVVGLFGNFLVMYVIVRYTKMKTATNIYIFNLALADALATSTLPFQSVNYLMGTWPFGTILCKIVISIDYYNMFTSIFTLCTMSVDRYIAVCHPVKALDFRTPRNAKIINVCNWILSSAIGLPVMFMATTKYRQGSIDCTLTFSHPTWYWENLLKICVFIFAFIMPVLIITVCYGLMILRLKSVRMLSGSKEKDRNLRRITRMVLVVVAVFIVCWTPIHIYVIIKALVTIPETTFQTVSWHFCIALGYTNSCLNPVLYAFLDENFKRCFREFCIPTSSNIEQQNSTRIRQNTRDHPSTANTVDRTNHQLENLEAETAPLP

Structure (SMILES) | inhibition [1] | inhibition [2] | inhibition [3] | inhibition [4] | inhibition (Mu-type opioid receptor) | inhibition [5] | inhibition [6] | inhibition [7]
CCC[C@H]1CNCc2c1[nH]c(=O)c(C#N)c2N1CCC2(CC1)CC2 | 3% | 8% | -1.5% | 6.67% | 18.4% |  |  | 
CCC[C@@H]1CNCc2c1[nH]c(=O)c(C#N)c2N1CCC2(CC1)CC2 |  |  |  |  |  | 0.8% | 6.8% | 1.6%
